Literature values, collected in US5705486A, “Isolation of novel peptides from green barley leaf extract and use same to inhibit human platelet aggregation” (Hagiwara; Yoshihide, priority 1996, dated 1998).

Tested on: rat anterior pituitary cells
Conditions: in vitro

For `Cc1c(C)c2c(c(C)c1OC(=O)CCC(=O)O)CC[C@@](C)(CCC[C@H](C)CCC[C@H](C)CCCC(C)C)O2` [α-tocopherol succinate], the “release of growth hormone and/or prolactin from rat anterior pituitary cells” value (Badamchian et al 1994) is listed as “enhances the release” and the “prolactin release from rat anterior pituitary cells” value (Badamchian et al 1995) is listed as “significant increase”.
